Assay results reported in BindingDB's records for patent US20260028352 (Suzhou Langrui Biopharmaceutical, 2026).

target: High affinity nerve growth factor receptor (Homo sapiens, UniProt P04629); experiment: Inhibitory Activity of Compounds Against TRKA and TRKA(F589L) Kinases
Protocol: (§1) Kinase Assay Process: 1× Kinase buffer was prepared. […] 10 μL of the 2.5× final concentration kinase solution was added to the compound wells and the positive control wells, and 10 μL of 1× Kinase buffer was added to the negative control wells. The plate was centrifuged at 1000 rpm for 30 seconds, vortexed for mixing, and then incubated at room temperature for 10 minutes. A mixture of 5/3× final concentration of ATP and Kinase Substrate 22 was prepared using 1× Kinase buffer. 15 μL of the mixture of the 5/3× final concentration ATP and the substrate was added to initiate the reaction, the 384-well plate was centrifuged at 1000 rpm for 30 seconds, vortexed for mixing, and incubated at room temperature for the required time. 30 μL of the termination solution was added to stop the kinase reaction, the plate was centrifuged at 1000 rpm for 30 seconds, and vortexed for mixing. The conversion rate was measured using the Caliper EZ Reader.

Chain of High affinity nerve growth factor receptor (P04629 whole entry): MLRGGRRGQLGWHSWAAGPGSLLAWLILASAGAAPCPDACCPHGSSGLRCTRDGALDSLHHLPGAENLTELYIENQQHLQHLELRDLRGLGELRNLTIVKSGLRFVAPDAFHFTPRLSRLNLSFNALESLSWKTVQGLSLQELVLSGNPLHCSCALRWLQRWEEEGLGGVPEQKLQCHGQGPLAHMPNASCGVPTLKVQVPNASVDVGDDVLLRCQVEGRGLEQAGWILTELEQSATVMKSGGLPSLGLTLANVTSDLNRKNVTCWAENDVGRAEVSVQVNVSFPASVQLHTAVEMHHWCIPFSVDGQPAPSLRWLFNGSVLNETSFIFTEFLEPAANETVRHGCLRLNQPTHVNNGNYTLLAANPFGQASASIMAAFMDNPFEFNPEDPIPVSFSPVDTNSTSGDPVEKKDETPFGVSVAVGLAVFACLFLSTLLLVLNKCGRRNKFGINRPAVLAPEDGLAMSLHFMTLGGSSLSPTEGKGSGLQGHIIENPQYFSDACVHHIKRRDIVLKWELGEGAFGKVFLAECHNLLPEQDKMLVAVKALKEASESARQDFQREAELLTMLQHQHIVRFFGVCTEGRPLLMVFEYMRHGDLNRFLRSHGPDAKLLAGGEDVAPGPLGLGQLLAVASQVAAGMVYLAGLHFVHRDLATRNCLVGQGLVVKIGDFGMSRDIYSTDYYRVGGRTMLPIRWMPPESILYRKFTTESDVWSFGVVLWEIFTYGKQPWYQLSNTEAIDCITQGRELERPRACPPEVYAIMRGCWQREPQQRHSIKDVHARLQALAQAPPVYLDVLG

IC50 | Compound
< 3 nM | Fc1cnc2c(c1)[C@H]1CCCN1c1ccc3ncc(n3n1)-c1cc(cnn1)CCO2 [US20260028352, Example I-87]
< 3 nM | Fc1ccc2c(c1)[C@H]1CCCN1c1ccc3ncc(n3n1)-c1cc(cnn1)CCO2 [US20260028352, Example I-85]
< 3 nM | C[C@@H]1Cc2ccnc(c2)-c2cnc3ccc(nn23)N2CCC[C@@H]2c2cc(F)ccc2O1 [US20260028352, Example I-37]
< 3 nM | C[C@H]1Nc2ccc3ncc(n3n2)-c2cc(ccn2)CCOc2ncc(F)cc21 [US20260028352, Example I-75]
< 3 nM | Fc1cnc2c(c1)[C@H]1C[C@H](F)CN1c1ccc3ncc(n3n1)-c1cc(ccn1)CO2 [US20260028352, Example I-60]
< 3 nM | Fc1cnc2c(c1)[C@H]1C[C@H](F)CN1c1ccc3ncc(n3n1)-c1cc(ncn1)CO2 [US20260028352, Example I-52]
< 3 nM | C[C@H]1Nc2ccc3ncc(n3n2)-c2cc(ccn2)CCOc2ccc(F)cc21 [US20260028352, Example I-76]
< 3 nM | Fc1cnc2c(c1)[C@H]1CCCN1c1ccc3ncc(n3n1)-c1nccc(n1)CO2 [US20260028352, Example I-63]
< 3 nM | C[C@H]1Nc2ccc3ncc(n3n2)-c2cc(ccn2)N2CC[C@H](C2)Oc2ccc(F)cc21 [US20260028352, Example I-41]
< 3 nM | Fc1ccc2c(c1)[C@H]1C[C@H](F)CN1c1ccc3ncc(n3n1)-c1cc(ccn1)CO2 [US20260028352, Example I-50]
< 3 nM | Fc1ccc2c(c1)[C@H]1C[C@H](F)CN1c1ccc3ncc(n3n1)-c1cc(ncn1)CO2 [US20260028352, Example I-58]
< 3 nM | C[C@@H]1Cc2ccnc(c2)-c2cnc3ccc(nn23)N[C@H](C)c2cc(F)ccc2O1 [US20260028352, Example I-34]
< 3 nM | Fc1cnc2c(c1)[C@H]1CCCN1c1ccc3ncc(n3n1)-c1cc(ncn1)CCO2 [US20260028352, Example I-71]
< 3 nM | C[C@H]1Nc2ccc3ncc(n3n2)-c2cc(ccn2)N2CCC[C@H](C2)Oc2ccc(F)cc21 [US20260028352, Example I-43]
< 3 nM | Fc1cnc2c(c1)[C@H]1C[C@H](F)CN1c1ccc3ncc(n3n1)-c1cc(cnn1)CCO2 [US20260028352, Example I-88]
< 3 nM | C[C@H]1Nc2ccc3ncc(n3n2)-c2cc(ncn2)CCOc2ccccc21 [US20260028352, Example I-32]
< 3 nM | Fc1cnc2c(c1)[C@H]1CCCN1c1ccc3ncc(n3n1)-c1cc(ncn1)CO2 [US20260028352, Example I-59]
< 3 nM | C[C@@H]1Cc2ccnc(c2)-c2cnc3ccc(nn23)N2CCC[C@@H]2c2cc(F)cnc2O1 [US20260028352, Example I-38]
< 3 nM | C[C@H]1Nc2ccc3ncc(n3n2)-c2cc(cnn2)COc2ccc(F)cc21 [US20260028352, Example I-82]

IC50 | Compound
< 3 nM | C[C@H]1Nc2ccc3ncc(n3n2)-c2cc(ncn2)CCOc2ncc(F)cc21 [US20260028352, Example I-73]
< 3 nM | Fc1ccc2c(c1)[C@H]1CCCN1c1ccc3ncc(n3n1)-c1cc(ncn1)CO2 [US20260028352, Example I-69]
< 3 nM | C[C@H]1Nc2ccc3ncc(n3n2)-c2cc(ccn2)N2CC[C@@H](C2)Oc2ccc(F)cc21 [US20260028352, Example I-42]
< 3 nM | Fc1ccc2c(c1)[C@H]1C[C@H](F)CN1c1ccc3ncc(n3n1)-c1cc(ccn1)CCO2 [US20260028352, Example I-56]
< 3 nM | C[C@@H]1Cc2cc(ncn2)-c2cnc3ccc(nn23)N[C@H](C)c2cc(F)ccc2O1 [US20260028352, Example I-35]
< 3 nM | C[C@H]1Nc2ccc3ncc(n3n2)-c2nccc(n2)CCOc2ccc(F)cc21 [US20260028352, Example I-84]
< 3 nM | Fc1ccc2c(c1)[C@H]1C[C@H](F)CN1c1ccc3ncc(n3n1)-c1cc(cnn1)CO2 [US20260028352, Example I-68]
< 3 nM | Fc1cnc2c(c1)[C@H]1C[C@H](F)CN1c1ccc3ncc(n3n1)-c1cc(ncn1)CCO2 [US20260028352, Example I-72]
< 3 nM | Fc1ccc2c(c1)C1(CC1)Nc1ccc3ncc(n3n1)-c1cc(ccn1)CO2 [US20260028352, Example I-47]
< 3 nM | C[C@H]1Nc2ccc3ncc(n3n2)-c2cc(ncn2)COc2ncc(F)cc21 [US20260028352, Example I-77]
< 3 nM | CC1(C)Nc2ccc3ncc(n3n2)-c2cc(ccn2)COc2ccc(F)cc21 [US20260028352, Example I-48]
< 3 nM | C[C@H]1Nc2ccc3ncc(n3n2)-c2cc(ncn2)COc2ccc(F)cc21 [US20260028352, Example I-78]
< 3 nM | C[C@H]1Nc2ccc3ncc(n3n2)-c2cc(cnn2)COc2ncc(F)cc21 [US20260028352, Example I-79]
< 3 nM | Fc1ccc2c(c1)[C@H]1CCCN1c1ccc3ncc(n3n1)-c1cc(ccn1)[C@@H]1CCC[C@H]1O2 [US20260028352, Example I-46]
< 3 nM | Fc1cnc2c(c1)[C@H]1CCCN1c1ccc3ncc(n3n1)-c1nccc(n1)CCO2 [US20260028352, Example I-94]
< 3 nM | Fc1cnc2c(c1)[C@H]1CCCN1c1ccc3ncc(n3n1)-c1cc(cnn1)CO2 [US20260028352, Example I-67]
< 3 nM | Fc1ccc2c(c1)[C@H]1C[C@H](F)CN1c1ccc3ncc(n3n1)-c1cc(ncn1)CCO2 [US20260028352, Example I-70]
< 3 nM | Fc1ccc2c(c1)[C@H]1CCCN1c1ccc3ncc(n3n1)-c1cc(ccn1)CCO2 [US20260028352, Example I-53]
< 3 nM | C[C@@H]1Cc2ccnc(c2)-c2cnc3ccc(nn23)N[C@H](C)c2cc(F)cnc2O1 [US20260028352, Example I-36]

IC50 | Compound
< 3 nM | C[C@@H]1Cc2ccnc(c2)-c2cnc3ccc(nn23)N2C[C@@H](F)C[C@@H]2c2cc(F)cnc2O1 [US20260028352, Example I-40]
< 3 nM | Fc1cnc2c(c1)[C@H]1C[C@H](F)CN1c1ccc3ncc(n3n1)-c1cc(cnn1)CO2 [US20260028352, Example I-62]
< 3 nM | Fc1ccc2c(c1)[C@H]1C[C@H](F)CN1c1ccc3ncc(n3n1)-c1cc(cnn1)CCO2 [US20260028352, Example I-86]
< 3 nM | C[C@H]1Nc2ccc3ncc(n3n2)-c2nccc(n2)CCOc2ncc(F)cc21 [US20260028352, Example I-83]
< 3 nM | C[C@H]1Nc2ccc3ncc(n3n2)-c2nccc(n2)COc2ncc(F)cc21 [US20260028352, Example I-81]
< 3 nM | Fc1cnc2c(c1)[C@H]1CCCN1c1ccc3ncc(n3n1)-c1cc(ccn1)CO2 [US20260028352, Example I-51]
< 3 nM | C[C@H]1Nc2ccc3ncc(n3n2)-c2nccc(n2)COc2ccc(F)cc21 [US20260028352, Example I-80]
< 3 nM | Fc1ccc2c(c1)[C@H]1CCCN1c1ccc3ncc(n3n1)-c1nccc(n1)CO2 [US20260028352, Example I-61]
< 3 nM | Fc1ccc2c(c1)[C@H]1C[C@H](F)CN1c1ccc3ncc(n3n1)-c1nccc(n1)CCO2 [US20260028352, Example I-93]
< 3 nM | C[C@H]1Cc2ccnc(n2)-c2cnc3ccc(nn23)N2C[C@@H](F)C[C@@H]2c2cc(F)cnc2O1 [US20260028352, Example I-96]
< 3 nM | Fc1ccc2c(c1)[C@H]1CCCN1c1ccc3ncc(n3n1)-c1cc(ccn1)[C@H]1CCC[C@H]1O2 [US20260028352, Example I-45]
< 3 nM | Fc1cnc2c(c1)[C@H]1CCCN1c1ccc3ncc(n3n1)-c1cc(ccn1)CCO2 [US20260028352, Example I-55]
< 3 nM | Fc1ccc2c(c1)[C@H]1CCCN1c1ccc3ncc(n3n1)-c1nccc(n1)CCO2 [US20260028352, Example I-92]
< 3 nM | Fc1cnc2c(c1)[C@H]1C[C@H](F)CN1c1ccc3ncc(n3n1)-c1nccc(n1)CO2 [US20260028352, Example I-64]
< 3 nM | Fc1cnc2c(c1)[C@H]1C[C@H](F)CN1c1ccc3ncc(n3n1)-c1cc(ccn1)CCO2 [US20260028352, Example I-54]
< 3 nM | C[C@H]1Nc2ccc3ncc(n3n2)-c2cc(ccn2)N2CCC[C@@H](C2)Oc2ccc(F)cc21 [US20260028352, Example I-44]
< 3 nM | Fc1ccc2c(c1)[C@H]1CCCN1c1ccc3ncc(n3n1)-c1cc(cnn1)CO2 [US20260028352, Example I-65]
< 3 nM | C[C@@H]1Cc2ccnc(c2)-c2cnc3ccc(nn23)N2C[C@@H](F)C[C@@H]2c2cc(F)ccc2O1 [US20260028352, Example I-39]
< 3 nM | C[C@H]1Nc2ccc3ncc(n3n2)-c2cc(ncn2)CCOc2ccc(F)cc21 [US20260028352, Example I-74]

target: High affinity nerve growth factor receptor NTRK1 [F589L] (UniProt P04629, F589L); experiment: as above
Protocol: as §1

Chain of High affinity nerve growth factor receptor NTRK1 [F589L] (P04629 33-796 F589L limits assumed): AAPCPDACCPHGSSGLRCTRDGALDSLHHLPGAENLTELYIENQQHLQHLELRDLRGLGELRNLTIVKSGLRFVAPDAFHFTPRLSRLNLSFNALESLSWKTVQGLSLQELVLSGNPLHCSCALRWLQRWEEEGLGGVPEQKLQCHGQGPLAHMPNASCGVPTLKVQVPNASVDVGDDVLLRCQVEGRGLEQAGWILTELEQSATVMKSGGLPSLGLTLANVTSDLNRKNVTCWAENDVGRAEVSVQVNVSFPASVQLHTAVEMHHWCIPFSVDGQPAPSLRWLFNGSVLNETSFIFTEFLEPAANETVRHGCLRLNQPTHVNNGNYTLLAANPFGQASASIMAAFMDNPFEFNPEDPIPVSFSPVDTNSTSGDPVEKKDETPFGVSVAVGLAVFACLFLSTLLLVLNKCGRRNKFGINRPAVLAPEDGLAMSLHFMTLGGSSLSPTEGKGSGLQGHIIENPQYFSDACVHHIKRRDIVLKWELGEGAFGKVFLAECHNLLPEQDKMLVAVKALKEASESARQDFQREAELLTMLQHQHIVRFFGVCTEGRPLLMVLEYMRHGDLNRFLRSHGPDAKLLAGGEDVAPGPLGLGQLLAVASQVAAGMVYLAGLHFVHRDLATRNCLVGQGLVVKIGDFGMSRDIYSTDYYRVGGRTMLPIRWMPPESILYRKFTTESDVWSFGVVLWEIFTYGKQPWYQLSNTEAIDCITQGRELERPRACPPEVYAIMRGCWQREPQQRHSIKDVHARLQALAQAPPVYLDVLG

IC50 | Compound
< 5 nM | Fc1cnc2c(c1)[C@H]1CCCN1c1ccc3ncc(n3n1)-c1cc(cnn1)CCO2 [US20260028352, Example I-87]
< 5 nM | Fc1ccc2c(c1)[C@H]1CCCN1c1ccc3ncc(n3n1)-c1cc(cnn1)CCO2 [US20260028352, Example I-85]
< 5 nM | C[C@@H]1Cc2ccnc(c2)-c2cnc3ccc(nn23)N2CCC[C@@H]2c2cc(F)ccc2O1 [US20260028352, Example I-37]
< 5 nM | Fc1cnc2c(c1)[C@H]1C[C@H](F)CN1c1ccc3ncc(n3n1)-c1cc(ncn1)CO2 [US20260028352, Example I-52]
< 5 nM | C[C@H]1Nc2ccc3ncc(n3n2)-c2cc(ccn2)CCOc2ccc(F)cc21 [US20260028352, Example I-76]
< 5 nM | C[C@H]1Nc2ccc3ncc(n3n2)-c2cc(ncn2)CCOc2ccccc21 [US20260028352, Example I-32]
< 5 nM | C[C@H]1Nc2ccc3ncc(n3n2)-c2cc(cnn2)COc2ccc(F)cc21 [US20260028352, Example I-82]
< 5 nM | C[C@H]1Nc2ccc3ncc(n3n2)-c2cc(ncn2)CCOc2ncc(F)cc21 [US20260028352, Example I-73]
< 5 nM | C[C@@H]1Cc2cc(ncn2)-c2cnc3ccc(nn23)N[C@H](C)c2cc(F)ccc2O1 [US20260028352, Example I-35]
< 5 nM | Fc1ccc2c(c1)C1(CC1)Nc1ccc3ncc(n3n1)-c1cc(ccn1)CO2 [US20260028352, Example I-47]
< 5 nM | C[C@H]1Nc2ccc3ncc(n3n2)-c2cc(ncn2)COc2ccc(F)cc21 [US20260028352, Example I-78]
< 5 nM | C[C@H]1Nc2ccc3ncc(n3n2)-c2cc(cnn2)COc2ncc(F)cc21 [US20260028352, Example I-79]
< 5 nM | Fc1ccc2c(c1)[C@H]1CCCN1c1ccc3ncc(n3n1)-c1cc(ccn1)[C@@H]1CCC[C@H]1O2 [US20260028352, Example I-46]
< 5 nM | C[C@@H]1Cc2ccnc(c2)-c2cnc3ccc(nn23)N[C@H](C)c2cc(F)cnc2O1 [US20260028352, Example I-36]
< 5 nM | Fc1cnc2c(c1)[C@H]1C[C@H](F)CN1c1ccc3ncc(n3n1)-c1cc(cnn1)CO2 [US20260028352, Example I-62]
< 5 nM | C[C@H]1Nc2ccc3ncc(n3n2)-c2nccc(n2)COc2ncc(F)cc21 [US20260028352, Example I-81]
< 5 nM | Fc1ccc2c(c1)[C@H]1CCCN1c1ccc3ncc(n3n1)-c1nccc(n1)CO2 [US20260028352, Example I-61]
< 5 nM | C[C@H]1Cc2ccnc(n2)-c2cnc3ccc(nn23)N2C[C@@H](F)C[C@@H]2c2cc(F)cnc2O1 [US20260028352, Example I-96]
< 5 nM | Fc1ccc2c(c1)[C@H]1CCCN1c1ccc3ncc(n3n1)-c1cc(ccn1)[C@H]1CCC[C@H]1O2 [US20260028352, Example I-45]
< 5 nM | C[C@H]1Nc2ccc3ncc(n3n2)-c2cc(ccn2)N2CCC[C@@H](C2)Oc2ccc(F)cc21 [US20260028352, Example I-44]
< 5 nM | Fc1ccc2c(c1)[C@H]1CCCN1c1ccc3ncc(n3n1)-c1cc(cnn1)CO2 [US20260028352, Example I-65]
< 5 nM | C[C@@H]1Cc2ccnc(c2)-c2cnc3ccc(nn23)N2C[C@@H](F)C[C@@H]2c2cc(F)ccc2O1 [US20260028352, Example I-39]
< 5 nM | C[C@H]1Nc2ccc3ncc(n3n2)-c2cc(ncn2)CCOc2ccc(F)cc21 [US20260028352, Example I-74]
